The results in this text go back to US20230143604A1, “QW DOSING OF GIP RECEPTOR AGONIST PEPTIDE COMPOUNDS AND USES THEREOF” (TAKEDA PHARMACEUTICAL COMPANY LIMITED, priority 2020, published 2023).

Starred links: 1 amine or outer side, 2 acyl side, 3 side chain; linkers in the order of their positions; H or OH if unused. Non-standard residues stand in square brackets, D forms with d. Residues, ends and D or L forms follow the SMILES beside them. Groups on a side chain read outwards from the residue. *: point of attachment. C18 diacid = O=C(O)CCCCCCCCCCCCCCCCC(=O)*; C17 diacid = O=C(O)CCCCCCCCCCCCCCCC(=O)*; γGlu = O=C(O)[C@H](CCC(=O)[*:2])N[*:1]; NMeY = CN[C@@H](Cc1ccc(O)cc1)C(=O)O; AEEA = NCCOCCOCC(=O)O; Aib = CC(C)(N)C(=O)O Bounds are passed on as bounds.

A short description of this data set: physchem. In short, it runs like this: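 Solubility at pH 7.4 determined by stepwise addition of 200 mM phosphate buffer in 100 μL increments to 3 mg peptide, mixing briefly each time, until no insoluble material remained, then measured by liquid chromatography.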
The mark [1] stands for this setting: pH 7.4, aqueous buffer, pH 7.4 Phosphate Buffer - Solubility, 200 mM Phosphate buffer pH 7.4.
[2] abbreviates: pH 7.4, solubility in phosphate buffer at pH 7.4, 200 mM phosphate buffer pH 7.4.

Turning to `CC[C@H](C)[C@H](NC(=O)[C@H](Cc1ccccc1)NC(=O)[C@@H](NC(=O)CNC(=O)[C@H](CCC(=O)O)NC(=O)C(C)(C)NC(=O)[C@@H](N)Cc1ccc(O)cc1)[C@@H](C)O)C(=O)N[C@@H](CO)C(=O)N[C@@H](CC(=O)O)C(=O)N[C@@H](Cc1ccc(O)cc1)C(=O)N[C@@H](CO)C(=O)N[C@H](C(=O)NC(C)(C)C(=O)N[C@@H](CC(C)C)C(=O)N[C@@H](CC(=O)O)C(=O)N[C@@H](CCCCN)C(=O)N[C@@H](C)C(=O)N[C@@H](C)C(=O)N[C@@H](CCC(N)=O)C(=O)N[C@@H](CCC(N)=O)C(=O)N[C@@H](CCCCNC(=O)COCCOCCNC(=O)COCCOCCNC(=O)CC[C@H](NC(=O)CC[C@H](NC(=O)CCCCCCCCCCCCCCCCC(=O)O)C(=O)O)C(=O)O)C(=O)N[C@@H](Cc1ccccc1)C(=O)N[C@H](C(=O)N[C@@H](CCC(=O)O)C(=O)N[C@@H](Cc1c[nH]c2ccccc12)C(=O)N[C@@H](CC(C)C)C(=O)N[C@@H](CC(C)C)C(=O)N[C@@H](C)C(=O)N[C@@H](CCC(N)=O)C(=O)N[C@@H](CCCNC(=N)N)C(=O)NCC(=O)O)C(C)C)[C@@H](C)CC` [Compound 167] (H-Y[Aib]EGTFISDYSI[Aib]LDKAAQQK([AEEA-AEEA-γGlu-γGlu-C18 diacid])FVEWLLAQRG-OH), the solubility (in general, how much of the substance goes into solution per volume) reads like this: (pH 7.4) no less than 15 mg/mL; (pH 7.4, aqueous buffer) no less than 30 mg/mL.

Compound `CC[C@H](C)[C@H](NC(=O)[C@H](CO)NC(=O)[C@H](Cc1ccc(O)cc1)NC(=O)[C@H](CC(=O)O)NC(=O)[C@H](CO)NC(=O)[C@@H](NC(=O)[C@H](Cc1ccccc1)NC(=O)[C@@H](NC(=O)CNC(=O)[C@H](CCC(=O)O)NC(=O)C(C)(C)NC(=O)[C@H](Cc1ccc(O)cc1)NC)[C@@H](C)O)[C@@H](C)CC)C(=O)N[C@@H](C)C(=O)N[C@@H](CC(C)C)C(=O)N[C@@H](CC(=O)O)C(=O)N[C@@H](CCCNC(=N)N)C(=O)NC(C)(C)C(=O)N[C@@H](C)C(=O)N[C@@H](CCC(N)=O)C(=O)NC(C)(C)C(=O)N[C@@H](CC(N)=O)C(=O)N[C@@H](Cc1ccccc1)C(=O)N[C@H](C(=O)N[C@@H](CC(N)=O)C(=O)N[C@@H](Cc1c[nH]c2ccccc12)C(=O)N[C@@H](CC(C)C)C(=O)N[C@@H](CC(C)C)C(=O)N[C@@H](C)C(=O)N[C@@H](CCCCNC(=O)COCCOCCNC(=O)COCCOCCNC(=O)CC[C@H](NC(=O)CC[C@H](NC(=O)CCCCCCCCCCCCCCCCC(=O)O)C(=O)O)C(=O)O)C(=O)N[C@@H](CO)C(=O)N1CCC[C@H]1C(=O)N[C@@H](CO)C(=O)N[C@@H](CO)C(=O)NCC(=O)N[C@@H](C)C(=O)N1CCC[C@H]1C(=O)N1CCC[C@H]1C(=O)N1CCC[C@H]1C(=O)N[C@@H](CO)C(N)=O)C(C)C` [Compound 59] (H-[NMeY][Aib]EGTFISDYSIALDR[Aib]AQ[Aib]NFVNWLLAK([AEEA-AEEA-γGlu-γGlu-C18 diacid])SPSSGAPPPS-NH2) had a solubility under setting [1] of no less than 30 mg/mL and a solubility under setting [2] of no less than 15 mg/mL.

Take `CC[C@H](C)[C@H](NC(=O)[C@H](CO)NC(=O)[C@H](Cc1ccc(O)cc1)NC(=O)[C@H](CC(=O)O)NC(=O)[C@H](CO)NC(=O)[C@@H](NC(=O)[C@H](Cc1ccccc1)NC(=O)[C@@H](NC(=O)CNC(=O)[C@H](CCC(=O)O)NC(=O)C(C)(C)NC(=O)[C@H](Cc1ccc(O)cc1)NC)[C@@H](C)O)[C@@H](C)CC)C(=O)N[C@@H](C)C(=O)N[C@@H](CC(C)C)C(=O)N[C@@H](CO)C(=O)N[C@@H](CCCNC(=N)N)C(=O)N[C@@H](CCCCNC(=O)CNC(=O)CNC(=O)CNC(=O)CNC(=O)CNC(=O)CNC(=O)CCCCCCCCCCCCCCCCC(=O)O)C(=O)N[C@@H](Cc1c[nH]cn1)C(=O)N[C@@H](CCC(N)=O)C(=O)NC(C)(C)C(=O)N[C@@H](CC(N)=O)C(=O)N[C@@H](Cc1ccccc1)C(=O)N[C@H](C(=O)N[C@@H](CC(N)=O)C(=O)N[C@@H](Cc1c[nH]c2ccccc12)C(=O)N[C@@H](CC(C)C)C(=O)N[C@@H](CC(C)C)C(=O)N[C@@H](C)C(=O)N[C@@H](CCC(N)=O)C(=O)N[C@@H](CCCNC(=N)N)C(=O)N1CCC[C@H]1C(=O)N[C@@H](CO)C(=O)N[C@@H](CO)C(=O)NCC(=O)N[C@@H](C)C(=O)N1CCC[C@H]1C(=O)N1CCC[C@H]1C(=O)N1CCC[C@H]1C(=O)N[C@@H](CO)C(=O)N[C@@H](CCCNC(=N)N)C(N)=O)C(C)C` [Compound 279]: under setting [1], the solubility is less than 15 mg/mL.

Regarding `CC[C@H](C)[C@H](NC(=O)[C@H](Cc1ccccc1)NC(=O)[C@@H](NC(=O)CNC(=O)[C@H](CCC(=O)O)NC(=O)C(C)(C)NC(=O)[C@H](Cc1ccc(O)cc1)NC)[C@@H](C)O)C(=O)N[C@@H](CO)C(=O)N[C@@H](CC(=O)O)C(=O)N[C@@H](Cc1ccc(O)cc1)C(=O)N[C@@H](CO)C(=O)N[C@H](C(=O)NC(C)(C)C(=O)N[C@@H](CC(C)C)C(=O)N[C@@H](CC(=O)O)C(=O)N[C@@H](CCCNC(=N)N)C(=O)NC(C)(C)C(=O)N[C@@H](CCCCNC(=O)COCCOCCNC(=O)COCCOCCNC(=O)CC[C@H](NC(=O)CC[C@H](NC(=O)CCCCCCCCCCCCCCCCC(=O)O)C(=O)O)C(=O)O)C(=O)N[C@@H](CCC(N)=O)C(=O)NC(C)(C)C(=O)N[C@@H](CC(N)=O)C(=O)N[C@@H](Cc1ccccc1)C(=O)N[C@H](C(=O)N[C@@H](CC(N)=O)C(=O)N[C@@H](Cc1c[nH]c2ccccc12)C(=O)N[C@@H](CC(C)C)C(=O)N[C@@H](CC(C)C)C(=O)N[C@@H](C)C(=O)N[C@@H](CCC(N)=O)C(=O)N[C@@H](CO)C(=O)N1CCC[C@H]1C(=O)N[C@@H](CO)C(=O)N[C@@H](CO)C(=O)NCC(=O)N[C@@H](C)C(=O)N1CCC[C@H]1C(=O)N1CCC[C@H]1C(=O)N1CCC[C@H]1C(=O)N[C@@H](CO)C(N)=O)C(C)C)[C@@H](C)CC` [Compound 100] (H-[NMeY][Aib]EGTFISDYSI[Aib]LDR[Aib]K([AEEA-AEEA-γGlu-γGlu-C18 diacid])Q[Aib]NFVNWLLAQSPSSGAPPPS-NH2), the solubility is, setting by setting: under setting [1], no less than 60 mg/mL; under setting [2], no less than 15 mg/mL.

Take `CC[C@H](C)[C@H](NC(=O)[C@H](CO)NC(=O)[C@H](Cc1ccc(O)cc1)NC(=O)[C@H](CC(=O)O)NC(=O)[C@H](CO)NC(=O)[C@@H](NC(=O)[C@H](Cc1ccccc1)NC(=O)[C@@H](NC(=O)CNC(=O)[C@H](CCC(=O)O)NC(=O)C(C)(C)NC(=O)[C@@H](N)Cc1ccc(O)cc1)[C@@H](C)O)[C@@H](C)CC)C(=O)N[C@@H](C)C(=O)NC(C)(C)C(=O)N[C@@H](CC(=O)O)C(=O)N[C@@H](CCCCN)C(=O)N[C@@H](C)C(=O)N[C@@H](C)C(=O)N[C@@H](CCC(N)=O)C(=O)N[C@@H](CCC(N)=O)C(=O)N[C@@H](CCCCNC(=O)COCCOCCNC(=O)COCCOCCNC(=O)CC[C@H](NC(=O)CC[C@H](NC(=O)CCCCCCCCCCCCCCCCC(=O)O)C(=O)O)C(=O)O)C(=O)N[C@@H](Cc1ccccc1)C(=O)N[C@H](C(=O)N[C@@H](CCC(=O)O)C(=O)N[C@@H](Cc1c[nH]c2ccccc12)C(=O)N[C@@H](CC(C)C)C(=O)N[C@@H](CC(C)C)C(=O)N[C@@H](C)C(=O)N[C@@H](CCC(N)=O)C(=O)N[C@@H](CCCNC(=N)N)C(=O)NCC(=O)O)C(C)C` [Compound 157] (H-Y[Aib]EGTFISDYSIA[Aib]DKAAQQK([AEEA-AEEA-γGlu-γGlu-C18 diacid])FVEWLLAQRG-OH): the solubility is no less than 15 mg/mL (pH 7.4) and no less than 30 mg/mL (pH 7.4, aqueous buffer).

For the compound `CC[C@H](C)[C@H](NC(=O)[C@H](CO)NC(=O)[C@H](Cc1ccc(O)cc1)NC(=O)[C@H](CC(=O)O)NC(=O)[C@H](CO)NC(=O)[C@@H](NC(=O)[C@H](Cc1ccccc1)NC(=O)[C@@H](NC(=O)CNC(=O)[C@H](CCC(=O)O)NC(=O)C(C)(C)NC(=O)[C@H](Cc1ccc(O)cc1)NC)[C@@H](C)O)[C@@H](C)CC)C(=O)N[C@@H](C)C(=O)N[C@@H](CC(C)C)C(=O)N[C@@H](CC(=O)O)C(=O)N[C@@H](CCCNC(=N)N)C(=O)NC(C)(C)C(=O)N[C@@H](C)C(=O)N[C@@H](CCC(N)=O)C(=O)NC(C)(C)C(=O)N[C@@H](CCCCNC(=O)COCCOCCNC(=O)COCCOCCNC(=O)CC[C@H](NC(=O)CC[C@H](NC(=O)CCCCCCCCCCCCCCCC(=O)O)C(=O)O)C(=O)O)C(=O)N[C@@H](Cc1ccccc1)C(=O)N[C@H](C(=O)N[C@@H](CC(N)=O)C(=O)N[C@@H](Cc1c[nH]c2ccccc12)C(=O)N[C@@H](CC(C)C)C(=O)N[C@@H](CC(C)C)C(=O)N[C@@H](C)C(=O)N[C@@H](CCC(N)=O)C(=O)N[C@@H](CCCNC(=N)N)C(=O)O)C(C)C` [Compound 9] (H-[NMeY][Aib]EGTFISDYSIALDR[Aib]AQ[Aib]K([AEEA-AEEA-γGlu-γGlu-C17 diacid])FVNWLLAQR-OH), the solubility was no less than 15 mg/mL (pH 7.4) and no less than 30 mg/mL (pH 7.4, aqueous buffer).

Consider `CC[C@H](C)[C@H](NC(=O)[C@H](CO)NC(=O)[C@H](Cc1ccc(O)cc1)NC(=O)[C@H](CC(=O)O)NC(=O)[C@H](CO)NC(=O)[C@@H](NC(=O)[C@H](Cc1ccccc1)NC(=O)[C@@H](NC(=O)CNC(=O)[C@H](CCC(=O)O)NC(=O)C(C)(C)NC(=O)[C@@H](N)Cc1ccc(O)cc1)[C@@H](C)O)[C@@H](C)CC)C(=O)N[C@@H](C)C(=O)N[C@@H](CC(C)C)C(=O)N[C@@H](CC(=O)O)C(=O)N[C@@H](CCCNC(=N)N)C(=O)NC(C)(C)C(=O)N[C@@H](C)C(=O)N[C@@H](CCC(N)=O)C(=O)NC(C)(C)C(=O)N[C@@H](CCCCNC(=O)COCCOCCNC(=O)COCCOCCNC(=O)CC[C@H](NC(=O)CC[C@H](NC(=O)CCCCCCCCCCCCCCCC(=O)O)C(=O)O)C(=O)O)C(=O)N[C@@H](Cc1ccccc1)C(=O)N[C@H](C(=O)N[C@@H](CC(N)=O)C(=O)N[C@@H](Cc1c[nH]c2ccccc12)C(=O)N[C@@H](CC(C)C)C(=O)N[C@@H](CC(C)C)C(=O)N[C@@H](C)C(=O)N[C@@H](CCC(N)=O)C(=O)N[C@@H](CCCNC(=N)N)C(=O)NCC(=O)O)C(C)C` [Compound 140] (H-Y[Aib]EGTFISDYSIALDR[Aib]AQ[Aib]K([AEEA-AEEA-γGlu-γGlu-C17 diacid])FVNWLLAQRG-OH), for which the solubility by setting is: (pH 7.4) no less than 15 mg/mL; (pH 7.4, aqueous buffer) no less than 30 mg/mL.
